Experimental data taken from patent US20100184989A1, “De Novo Synthesis of Conjugates” (Nektar Therapeutics, priority 2007, published 2010).

The compounds below were run against calcium channel type L (Rattus norvegicus, UniProt P22002) (assay: Calcium channel type L binding assay, [3H]Nitrendipine displacement). Details: rat cortical membranes; [3H]Nitrendipine 0.2 nM; 50 mM TRIS-HCl pH 7.7, 25° C., 60 minutes; nifedipine reference value given beside each test compound.
Procedure: In the assay, rat cortical membranes were used as a receptor source and the radioligand [^3H]Nitrendipine (70-87 Ci/mmol) was used at a final ligand concentration of 0.2 nM. […] The reactions were carried out in 50 mM TRIS-HCl (pH 7.7) at 25° C. for 60 minutes. The reaction was terminated by rapid vacuum filtration onto glass fiber filters. Radioactivity trapped onto the filters was determined and compared to control values in order to ascertain any interactions of test compound with the nitredipine binding site (Gould, Murphy, and Snyder. Molecular Pharmacology 25, 235-241 (1984)).

Chain of calcium channel type L (P22002 whole entry): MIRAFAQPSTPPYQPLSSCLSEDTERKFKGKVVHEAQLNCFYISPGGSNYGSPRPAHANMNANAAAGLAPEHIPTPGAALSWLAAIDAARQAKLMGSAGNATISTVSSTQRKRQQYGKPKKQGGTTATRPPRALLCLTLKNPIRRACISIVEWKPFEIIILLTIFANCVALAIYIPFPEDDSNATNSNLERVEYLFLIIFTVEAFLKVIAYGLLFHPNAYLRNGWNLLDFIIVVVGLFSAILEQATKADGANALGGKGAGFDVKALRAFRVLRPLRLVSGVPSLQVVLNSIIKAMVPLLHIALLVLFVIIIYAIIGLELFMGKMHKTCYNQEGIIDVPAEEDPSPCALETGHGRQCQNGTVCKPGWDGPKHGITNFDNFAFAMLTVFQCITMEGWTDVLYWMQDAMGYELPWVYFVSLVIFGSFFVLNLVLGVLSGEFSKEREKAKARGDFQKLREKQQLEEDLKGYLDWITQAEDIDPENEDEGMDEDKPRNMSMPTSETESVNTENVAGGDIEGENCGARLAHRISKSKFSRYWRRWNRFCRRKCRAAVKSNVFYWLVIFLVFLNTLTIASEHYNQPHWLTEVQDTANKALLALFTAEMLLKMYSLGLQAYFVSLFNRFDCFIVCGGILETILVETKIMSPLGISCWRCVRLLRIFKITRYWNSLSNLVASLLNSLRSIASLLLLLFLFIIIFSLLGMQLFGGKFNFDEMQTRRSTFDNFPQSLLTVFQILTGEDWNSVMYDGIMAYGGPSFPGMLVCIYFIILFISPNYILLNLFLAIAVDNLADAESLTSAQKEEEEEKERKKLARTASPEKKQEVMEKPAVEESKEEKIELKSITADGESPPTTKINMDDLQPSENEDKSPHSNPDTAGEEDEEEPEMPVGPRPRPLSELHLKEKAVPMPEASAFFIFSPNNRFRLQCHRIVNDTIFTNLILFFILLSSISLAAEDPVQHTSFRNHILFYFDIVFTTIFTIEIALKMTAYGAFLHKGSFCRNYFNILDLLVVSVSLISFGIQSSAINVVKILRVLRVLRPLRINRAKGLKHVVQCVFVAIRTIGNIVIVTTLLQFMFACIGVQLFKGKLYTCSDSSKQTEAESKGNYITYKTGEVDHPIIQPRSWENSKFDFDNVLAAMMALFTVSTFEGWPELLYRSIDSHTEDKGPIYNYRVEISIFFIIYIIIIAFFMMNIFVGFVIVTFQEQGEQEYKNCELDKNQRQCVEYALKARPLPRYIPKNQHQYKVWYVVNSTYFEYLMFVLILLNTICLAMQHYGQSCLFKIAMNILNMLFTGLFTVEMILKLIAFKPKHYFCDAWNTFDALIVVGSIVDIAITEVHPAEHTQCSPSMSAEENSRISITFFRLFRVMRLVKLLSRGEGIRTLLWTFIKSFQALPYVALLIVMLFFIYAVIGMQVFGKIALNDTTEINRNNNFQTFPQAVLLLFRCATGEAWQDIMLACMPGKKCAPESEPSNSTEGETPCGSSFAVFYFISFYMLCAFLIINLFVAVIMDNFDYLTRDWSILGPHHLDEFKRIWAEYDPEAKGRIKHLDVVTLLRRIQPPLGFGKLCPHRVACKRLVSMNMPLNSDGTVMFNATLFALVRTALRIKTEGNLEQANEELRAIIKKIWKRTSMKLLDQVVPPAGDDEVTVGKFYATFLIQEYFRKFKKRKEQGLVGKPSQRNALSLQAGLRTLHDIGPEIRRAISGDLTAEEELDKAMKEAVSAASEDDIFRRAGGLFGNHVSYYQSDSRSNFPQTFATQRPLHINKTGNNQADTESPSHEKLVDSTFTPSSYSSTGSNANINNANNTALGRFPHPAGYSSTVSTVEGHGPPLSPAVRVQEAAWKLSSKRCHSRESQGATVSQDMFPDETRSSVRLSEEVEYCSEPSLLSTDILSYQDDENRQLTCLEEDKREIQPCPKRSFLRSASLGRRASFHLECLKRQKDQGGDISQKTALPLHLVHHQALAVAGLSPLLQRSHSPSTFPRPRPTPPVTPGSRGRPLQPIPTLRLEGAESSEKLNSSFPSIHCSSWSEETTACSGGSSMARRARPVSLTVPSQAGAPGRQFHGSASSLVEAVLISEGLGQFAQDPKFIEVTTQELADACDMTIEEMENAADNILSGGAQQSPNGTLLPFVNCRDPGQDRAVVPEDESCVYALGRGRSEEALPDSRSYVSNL

| Structure (SMILES) | IC50 [nM] |
| --- | --- |
| CCCCCCOCCOCCOC(=O)C1=C(C)NC(C)=C(C(=O)OCCOCCOCCCCCC)C1c1ccccc1[N+](=O)[O-] [compound (6c) from Example 3, 2,6-dimethyl 4-(2-nitrophenyl)-1,4-dihydropyridine-3,5-dicarboxylic acid dihexoxy di(ethylene glycol)Ester] | 55.6 |
| CCCCOCCOCCOC(=O)C1=C(C)NC(C)=C(C(=O)OCCOCCOCCCC)C1c1ccccc1[N+](=O)[O-] [compound (6b) from Example 3, 2,6-dimethyl 4-(2-nitrophenyl)-1,4-dihydropyridine-3,5-dicarboxylic acid dibutoxy di(ethylene glycol)ester] | 15.5 |
| COCCOCCOCCOC(=O)C1=C(C)NC(C)=C(C(=O)OCCOCCOCCOC)C1c1ccccc1[N+](=O)[O-] [compound (2) from Example 1, 2,6-dimethyl 4-(2-nitrophenyl)-1,4-dihydropyridine-3,5-dicarboxylic acid dimethoxy tri(ethylene glycol)ester] | 160 |
| COCCOCCOC(=O)C1=C(C)NC(C)=C(C(=O)OCCOCCOC)C1c1ccccc1[N+](=O)[O-] [compound (6a) from Example 3, 2,6-dimethyl 4-(2-nitrophenyl)-1,4-dihydropyridine-3,5-dicarboxylic acid dimethoxy di(ethylene glycol)ester] | 67.4 |
